# Source: US8940754B2, “10′-fluorinated Vinca alkaloids provide enhanced biological activity against MDR cancer cells” (priority 2010, dated 2015)
# Like-named read-outs stand apart in the source and are kept apart here.
# Tests used:
# Assay in all cases: cells
# HCT116/VM46 = assay type: cell-based, human
# L1210 = assay type: cell-based, mouse
# HCT116 = assay type: cell-based, human
# [1] = Table 2C, side-by-side, multiple examinations with several independent samples; read-out: IC50 (nM) HCT116/VM46
# [2] = Table 2C, side-by-side, multiple examinations with several independent samples; read-out: IC50 (nM) L1210
# [3] = Homo sapiens, HCT-116; Table 1A, C16′-modified anhydrovinblastine analogues; read-out: IC50 (nM) HCT116
# [4] = Homo sapiens, HCT-116/VM46; Table 1A, C16′-modified anhydrovinblastine analogues; read-out: IC50 (nM) HCT116/VM46
# [5] = Mus musculus, L1210; Table 1A, C16′-modified anhydrovinblastine analogues; read-out: IC50 (nM) L1210
# [6] = Homo sapiens, HCT-116; read-out: IC50 (nM) HCT116
# [7] = Homo sapiens, HCT-116/VM46; read-out: IC50 (nM) HCT116/VM46
# [8] = Mus musculus, L1210; read-out: IC50 (nM) L1210
# [9] = Homo sapiens, HCT-116; Table 2A, C10′-substituted anhydrovinblastines, single evaluations; read-out: IC50 (nM) HCT116
# [10] = Homo sapiens, HCT-116/VM46; Table 2A, C10′-substituted anhydrovinblastines, single evaluations; read-out: IC50 (nM) HCT116/VM46
# [11] = Mus musculus, L1210; Table 2A, C10′-substituted anhydrovinblastines, single evaluations; read-out: IC50 (nM) L1210
# [12] = Homo sapiens, HCT-116; Table 2B, C10′-substituted vinblastines, single evaluations; read-out: IC50 (nM) HCT116
# [13] = Homo sapiens, HCT-116/VM46; Table 2B, C10′-substituted vinblastines, single evaluations; read-out: IC50 (nM) HCT116/VM46
# [14] = Mus musculus, L1210; Table 2B, C10′-substituted vinblastines, single evaluations; read-out: IC50 (nM) L1210
smiles,measurement,setting,value
"CC[C@]1(O)C[C@@H]2CN(CCc3c([nH]c4ccccc34)[C@@](C(=O)OC)(c3cc4c(cc3OC)N(C)[C@H]3[C@@](O)(C(=O)OC)[C@H](OC(C)=O)[C@]5(CC)C=CCN6CC[C@]43[C@@H]65)C2)C1 [Compound 1, Vinblastine, reference compound]",IC50,"HCT116/VM46; Table 1B, C16′-modified vinblastine analogues; read-out: IC50 (nM) HCT116/VM46",600 nM
same,IC50,"HCT116/VM46; Table 2B, C10′-substituted vinblastines, single evaluations; read-out: IC50 (nM) HCT116/VM46",600 nM
same,IC50,HCT116/VM46; [1],600 nM
same,IC50,"L1210; Table 1B, C16′-modified vinblastine analogues; read-out: IC50 (nM) L1210",6 nM
same,IC50,"L1210; Table 2B, C10′-substituted vinblastines, single evaluations; read-out: IC50 (nM) L1210",6 nM
same,IC50,L1210; [2],6 nM
"CC[C@]1(O)C[C@H]2CN(CCc3c([nH]c4ccccc34)[C@@](C(=O)OC)(c3cc4c(cc3OC)N(C=O)[C@H]3[C@@](O)(C(=O)OC)[C@H](OC(C)=O)[C@]5(CC)C=CCN6CC[C@]43[C@@H]65)C2)C1 [Compound 2, Vincristine, reference compound]",IC50,"HCT116; Table 2C, side-by-side, multiple examinations with several independent samples; read-out: IC50 (nM) HCT116",7 nM
same,IC50,HCT116/VM46; [1],700 nM
same,IC50,L1210; [2],6 nM
"CCC1=C[C@@H]2CN(CCc3c([nH]c4ccccc34)[C@@](C(=O)OC)(c3cc4c(cc3OC)N(C)[C@H]3[C@@](O)(C(=O)OC)[C@H](OC(C)=O)[C@]5(CC)C=CCN6CC[C@]43[C@@H]65)C2)C1 [Compound 4a, anhydrovinblastine, reference compound]",IC50,"HCT116; Table 1A, C16′-modified anhydrovinblastine analogues; read-out: IC50 (nM) HCT116",75 nM
same,IC50,"HCT116; Table 2A, C10′-substituted anhydrovinblastines, single evaluations; read-out: IC50 (nM) HCT116",75 nM
same,IC50,"HCT116/VM46; Table 1A, C16′-modified anhydrovinblastine analogues; read-out: IC50 (nM) HCT116/VM46",600 nM
same,IC50,"HCT116/VM46; Table 2A, C10′-substituted anhydrovinblastines, single evaluations; read-out: IC50 (nM) HCT116/VM46",600 nM
same,IC50,"L1210; Table 1A, C16′-modified anhydrovinblastine analogues; read-out: IC50 (nM) L1210",65 nM
same,IC50,"L1210; Table 2A, C10′-substituted anhydrovinblastines, single evaluations; read-out: IC50 (nM) L1210",65 nM
CCOC(=O)[C@]1(c2cc3c(cc2OC)N(C)C2C(O)(C(=O)OC)[C@H](OC(C)=O)[C@]4(CC)C=CCN5CC[C@]32[C@@H]54)C[C@@H]2C=C(CC)CN(CCc3c1[nH]c1ccccc31)C2 (stereo partly drawn) [Compound 5a],IC50,HCT116; [3],640 nM
same,IC50,HCT116/VM46; [4],4100 nM
same,IC50,L1210; [5],620 nM
CCOC(=O)[C@]1(c2cc3c(cc2OC)N(C)C2C(O)(C(=O)OC)[C@H](OC(C)=O)[C@]4(CC)C=CCN5CC[C@]32[C@@H]54)C[C@H]2CN(CCc3c1[nH]c1ccccc31)C[C@](O)(CC)C2 (stereo partly drawn) [Compound 5b],IC50,HCT116; [6],70 nM
same,IC50,HCT116/VM46; [7],830 nM
same,IC50,L1210; [8],60 nM
CCC1=C[C@@H]2CN(CCc3c([nH]c4ccccc34)[C@@](C#N)(c3cc4c(cc3OC)N(C)C3C(O)(C(=O)OC)[C@H](OC(C)=O)[C@]5(CC)C=CCN6CC[C@]43[C@@H]65)C2)C1 (stereo partly drawn) [Compound 6a],IC50,HCT116; [3],6100 nM
same,IC50,HCT116/VM46; [4],6800 nM
same,IC50,L1210; [5],6500 nM
CC[C@]1(O)C[C@@H]2CN(CCc3c([nH]c4ccccc34)[C@@](C#N)(c3cc4c(cc3OC)N(C)C3C(O)(C(=O)OC)[C@H](OC(C)=O)[C@]5(CC)C=CCN6CC[C@]43[C@@H]65)C2)C1 (stereo partly drawn) [Compound 6b],IC50,HCT116; [6],670 nM
same,IC50,HCT116/VM46; [7],7400 nM
same,IC50,L1210; [8],630 nM
CCC1=C[C@@H]2CN(CCc3c([nH]c4ccccc34)[C@@](C(N)=O)(c3cc4c(cc3OC)N(C)C3C(O)(C(=O)OC)[C@H](OC(C)=O)[C@]5(CC)C=CCN6CC[C@]43[C@@H]65)C2)C1 (stereo partly drawn) [Compound 7a],IC50,HCT116; [3],> 10000 nM
same,IC50,HCT116/VM46; [4],> 10000 nM
same,IC50,L1210; [5],> 10000 nM
CC[C@]1(O)C[C@@H]2CN(CCc3c([nH]c4ccccc34)[C@@](C(N)=O)(c3cc4c(cc3OC)N(C)C3C(O)(C(=O)OC)[C@H](OC(C)=O)[C@]5(CC)C=CCN6CC[C@]43[C@@H]65)C2)C1 (stereo partly drawn) [Compound 7b],IC50,HCT116; [6],> 10000 nM
same,IC50,HCT116/VM46; [7],> 10000 nM
same,IC50,L1210; [8],> 10000 nM
CCC1=C[C@@H]2CN(CCc3c([nH]c4ccccc34)[C@@](C=O)(c3cc4c(cc3OC)N(C)C3C(O)(C(=O)OC)[C@H](OC(C)=O)[C@]5(CC)C=CCN6CC[C@]43[C@@H]65)C2)C1 (stereo partly drawn) [Compound 8a],IC50,HCT116; [3],7000 nM
same,IC50,HCT116/VM46; [4],> 10000 nM
same,IC50,L1210; [5],6300 nM
CC[C@]1(O)C[C@@H]2CN(CCc3c([nH]c4ccccc34)[C@@](CO)(c3cc4c(cc3OC)N(C)C3C(O)(C(=O)OC)[C@H](OC(C)=O)[C@]5(CC)C=CCN6CC[C@]43[C@@H]65)C2)C1 (stereo partly drawn) [Compound 11b],IC50,HCT116; [6],5800 nM
same,IC50,HCT116/VM46; [7],> 10000 nM
same,IC50,L1210; [8],6500 nM
"CCC1=C[C@@H]2CN(CCc3c([nH]c4ccc(C#N)cc34)[C@@](C(=O)OC)(c3cc4c(cc3OC)N(C)C3C(O)(C(=O)OC)[C@H](OC(C)=O)[C@]5(CC)C=CCN6CC[C@]43[C@@H]65)C2)C1 (stereo partly drawn) [Compound 15a, 10′-cyanoanhydrovinblastine]",IC50,"HCT116; Homo sapiens, HCT-116, read-out: IC50 (nM) HCT116",70 nM
same,IC50,"HCT116/VM46; Homo sapiens, HCT-116/VM46, read-out: IC50 (nM) HCT116/VM46",920 nM
same,IC50,"L1210; Mus musculus, L1210, read-out: IC50 (nM) L1210",65 nM
"CCC1=C[C@@H]2CN(CCc3c([nH]c4ccc(I)cc34)[C@@](C(=O)OC)(c3cc4c(cc3OC)N(C)C3C(O)(C(=O)OC)[C@H](OC(C)=O)[C@]5(CC)C=CCN6CC[C@]43[C@@H]65)C2)C1 (stereo partly drawn) [Compound 16a, 10′-iodoanhydrovinblastine]",IC50,HCT116; [9],600 nM
same,IC50,HCT116/VM46; [10],1800 nM
same,IC50,L1210; [11],620 nM
"CC[C@]1(O)C[C@@H]2CN(CCc3c([nH]c4ccc(I)cc34)[C@@](C(=O)OC)(c3cc4c(cc3OC)N(C)C3C(O)(C(=O)OC)[C@H](OC(C)=O)[C@]5(CC)C=CCN6CC[C@]43[C@@H]65)C2)C1 (stereo partly drawn) [Compound 16b, 10′-iodovinblastine]",IC50,HCT116; [12],60 nM
same,IC50,HCT116/VM46; [13],840 nM
same,IC50,L1210; [14],55 nM
"CCC1=C[C@@H]2CN(CCc3c([nH]c4ccc(Br)cc34)[C@@](C(=O)OC)(c3cc4c(cc3OC)N(C)C3C(O)(C(=O)OC)[C@H](OC(C)=O)[C@]5(CC)C=CCN6CC[C@]43[C@@H]65)C2)C1 (stereo partly drawn) [Compound 17a, 10′-bromoanhydrovinblastine]",IC50,HCT116; [9],70 nM
same,IC50,HCT116/VM46; [10],860 nM
same,IC50,L1210; [11],65 nM
"CC[C@]1(O)C[C@@H]2CN(CCc3c([nH]c4ccc(Br)cc34)[C@@](C(=O)OC)(c3cc4c(cc3OC)N(C)C3C(O)(C(=O)OC)[C@H](OC(C)=O)[C@]5(CC)C=CCN6CC[C@]43[C@@H]65)C2)C1 (stereo partly drawn) [Compound 17b, 10′-bromo-vinblastine]",IC50,HCT116; [12],8.6 nM
same,IC50,HCT116/VM46; [13],270 nM
same,IC50,L1210; [14],8 nM
"CCC1=C[C@@H]2CN(CCc3c([nH]c4ccc(Cl)cc34)[C@@](C(=O)OC)(c3cc4c(cc3OC)N(C)C3C(O)(C(=O)OC)[C@H](OC(C)=O)[C@]5(CC)C=CCN6CC[C@]43[C@@H]65)C2)C1 (stereo partly drawn) [Compound 18a, 10′-chloroanhydrovinblastine]",IC50,HCT116; [9],70 nM
same,IC50,HCT116/VM46; [10],800 nM
same,IC50,L1210; [11],60 nM
"CC[C@]1(O)C[C@@H]2CN(CCc3c([nH]c4ccc(Cl)cc34)[C@@](C(=O)OC)(c3cc4c(cc3OC)N(C)C3C(O)(C(=O)OC)[C@H](OC(C)=O)[C@]5(CC)C=CCN6CC[C@]43[C@@H]65)C2)C1 (stereo partly drawn) [Compound 18b, 10′-chlorovinblastine]",IC50,HCT116; [12],7.6 nM
same,IC50,HCT116/VM46; [13],720 nM
same,IC50,L1210; [14],6.2 nM
"CCC1=C[C@@H]2CN(CCc3c([nH]c4ccc(SC)cc34)[C@@](C(=O)OC)(c3cc4c(cc3OC)N(C)C3C(O)(C(=O)OC)[C@H](OC(C)=O)[C@]5(CC)C=CCN6CC[C@]43[C@@H]65)C2)C1 (stereo partly drawn) [Compound 20a, 10′-thiomethylanhydrovinblastine]",IC50,HCT116; [9],85 nM
same,IC50,HCT116/VM46; [10],770 nM
same,IC50,L1210; [11],60 nM
"CC[C@]1(O)C[C@@H]2CN(CCc3c([nH]c4ccc(SC)cc34)[C@@](C(=O)OC)(c3cc4c(cc3OC)N(C)C3C(O)(C(=O)OC)[C@H](OC(C)=O)[C@]5(CC)C=CCN6CC[C@]43[C@@H]65)C2)C1 (stereo partly drawn) [Compound 20b, 10′-thiomethylvinblastine]",IC50,HCT116; [12],35 nM
same,IC50,HCT116/VM46; [13],740 nM
same,IC50,L1210; [14],45 nM
"CCC1=C[C@@H]2CN(CCc3c([nH]c4ccc(C)cc34)[C@@](C(=O)OC)(c3cc4c(cc3OC)N(C)C3C(O)(C(=O)OC)[C@H](OC(C)=O)[C@]5(CC)C=CCN6CC[C@]43[C@@H]65)C2)C1 (stereo partly drawn) [Compound 21a, 10′-methylanhydrovinblastine]",IC50,HCT116; [9],65 nM
same,IC50,HCT116/VM46; [10],640 nM
same,IC50,L1210; [11],65 nM
"CC[C@]1(O)C[C@@H]2CN(CCc3c([nH]c4ccc(C)cc34)[C@@](C(=O)OC)(c3cc4c(cc3OC)N(C)C3C(O)(C(=O)OC)[C@H](OC(C)=O)[C@]5(CC)C=CCN6CC[C@]43[C@@H]65)C2)C1 (stereo partly drawn) [Compound 21b, 10′-methylvinblastine]",IC50,HCT116; [12],7.8 nM
same,IC50,HCT116/VM46; [13],600 nM
same,IC50,L1210; [14],7.8 nM
"CCC1=C[C@@H]2CN(CCc3c([nH]c4ccc(OC)cc34)[C@@](C(=O)OC)(c3cc4c(cc3OC)N(C)C3C(O)(C(=O)OC)[C@H](OC(C)=O)[C@]5(CC)C=CCN6CC[C@]43[C@@H]65)C2)C1 (stereo partly drawn) [Compound 22a, 10′-methoxyanhydrovinblastine]",IC50,HCT116; [9],640 nM
same,IC50,HCT116/VM46; [10],5500 nM
same,IC50,L1210; [11],550 nM
